According to PMC9878617, “Distinct conformational changes occur within the intrinsically unstructured pro‐domain of pro‐Nerve Growth Factor in the presence of ATP and Mg^2+” (Protein Science : A Publication of the Protein Society, 2023):
pKd: −log10 of the molar value.

Molecular target: T1, rh-proNGF (Homo sapiens, UniProt P01138)
T1 construct: gene NGF; proNGF without signal peptide; homodimer
Assay: ITC, global fit of two titrations (SEDPHAT)
Assay type: binding
Settings: read-out: Best-fit value
Text: ITC, global fit of two titrations (SEDPHAT) on rh-proNGF

T1 sequence (P01138 19-241): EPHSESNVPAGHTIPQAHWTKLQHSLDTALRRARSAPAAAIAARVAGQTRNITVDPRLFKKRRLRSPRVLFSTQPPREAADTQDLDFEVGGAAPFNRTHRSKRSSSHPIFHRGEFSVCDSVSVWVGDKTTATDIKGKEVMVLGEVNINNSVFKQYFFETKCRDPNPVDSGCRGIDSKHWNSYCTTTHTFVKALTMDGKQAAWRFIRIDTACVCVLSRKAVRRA

pKd: 4.40
SMILES: Nc1ncnc2c1ncn2[C@@H]1O[C@H](COP(=O)(O)OP(=O)(O)OP(=O)(O)O)[C@@H](O)[C@H]1O [ATP]
